Test results taken from US6514692B2, “Method for treatment of immunodeficiency virus infection” (priority 1996, dated 2003).
Values joined by “and” are separate entries in the source; they are usually repeats but may differ in a detail not shown here. Identical values can stand only once. Like-named read-outs stand apart in the source and are kept apart here.

Columns and labels:
ME180 cells = test: toxicity (XTT) in transmission inhibition assay; conditions: for TOXICITY VALUES (XTT), single samples: samples 1-3; for TC50 (concentration at which 50% of cells are eliminated): interpolation from % CC
Text: (§1) ME180 cells, a cervical epithelial cell line, were obtained from the American Type Culture Collection. These cells were thawed from liquid nitrogen and grown in RPMI 1640 medium supplemented with 10t fetal bovine serum, glutamine and antibiotics. The cells were adherent and were trypsinized (0.5% trypsin in HBSS) to remove them from the flask for passaging and use in assays. For use in the microtiter transmission inhibition assay, ME180 cells were trypsinized, washed and seeded in 96-well flat bottom microtiter plates (COSTAR) at a density of 5×10^3 cells per well. The cells were incubated at 37° C. for 24 hours prior to the tart of the assay. H9 cells chronically infected with he SK1 isolate of HIV-1 were treated with 200 μg/ml mitomycin C for 60 minutes at 37° C. After treatment the cells were washed three times with tissue culture medium. The chronically infected lymphocytes were added to each well at a density of 2×10^4 cells per well. The concentration of mitomycin C used in the treatment of the lymphocytes was chosen to allow lymphocyte survival for the period of time required to transmit virus to the uninfected ME180 cells, but to die prior to the time of assay so as not to contribute to the p24 signal used as the endpoint (see below). In the transmission assay the lytic peptides D4E1 and D2A21, with and without 150 μg/ml pig mucin, were added prior to the addition of chronically infected cells or were mixed with the chronically infected cells prior to their addition to the monolayer of ME180 cells. Mucin was included because it is an abundant constituent of the normal vaginal secretions of a human being, thus any chemotherapeutic agent targeting HIV should be active in its presence if it is to have clinical value. […] The lymphocytes and peptide were co-cultured with the ME180 cells for 6 hours and then removed by washing the ME180 monolayer four times with PBS. The plate was then incubated at 37° C. for six days. Medium was removed and changed every 48 hours during the incubation stage. No further peptide was added after the initial dose. At six days post-co-cultivation, the supernatant was removed from the wells and evaluated for the quantity of p24 antigen by ELISA. The ELISA was performed according to the manufacturer's recommendations. The amount of virus production in wells treated with various concentrations of the peptides was evaluated with appropriate cell and virus controls. Data are reported as a percent of virus control at each drug concentration. Linear regression analysis was used to calculate the […] and IC95 concentrations of the transmission inhibitor. […] TI represents the toxicity index, which is the ratio of the TC50/IC50, and is an indication of the relative concentrations window that exists between efficacy and toxicity.

SK1 isolate of HIV-1 = conditions: for p24 VALUES, single samples: samples 1-3; for IC50 (inhibition of cell-cell transmission): linear regression
Text: as §1

[1] = 0.32 μg/ml, with 150 μg/ml pig mucin
[2] = 1 μg/ml, with 150 μg/ml pig mucin
[3] = 3.2 μg/ml, with 150 μg/ml pig mucin
[4] = 10 μg/ml, with 150 μg/ml pig mucin
[5] = 32 μg/ml, with 150 μg/ml pig mucin
[6] = 100 μg/ml, with 150 μg/ml pig mucin

Substance: Dextran
- % CC (XTT, percent of cell control) (ME180 cells; 0.32 μg/ml, no mucin): 90.1%
- TOXICITY VALUES (XTT), MEAN (ME180 cells; 0.32 μg/ml, no mucin): 0.458 O.D. @ 450/650 nm
- TOXICITY VALUES (XTT), single samples (ME180 cells; 0.32 μg/ml, no mucin): 0.462 O.D. @ 450/650 nm and 0.463 O.D. @ 450/650 nm and 0.488 O.D. @ 450/650 nm
- % CC (XTT, percent of cell control) (ME180 cells; [1]): 90.1%
- TOXICITY VALUES (XTT), MEAN (ME180 cells; [1]): 0.458 O.D. @ 450/650 nm
- TOXICITY VALUES (XTT), single samples (ME180 cells; [1]): 0.462 O.D. @ 450/650 nm and 0.463 O.D. @ 450/650 nm and 0.448 O.D. @ 450/650 nm
- % CC (XTT, percent of cell control) (ME180 cells; 1 μg/ml, no mucin): 88.1%
- TOXICITY VALUES (XTT), MEAN (ME180 cells; 1 μg/ml, no mucin): 0.447 O.D. @ 450/650 nm
- TOXICITY VALUES (XTT), single samples (ME180 cells; 1 μg/ml, no mucin): 0.425 O.D. @ 450/650 nm and 0.457 O.D. @ 450/650 nm and 0.450 O.D. @ 450/650 nm
- % CC (XTT, percent of cell control) (ME180 cells; [2]): 88.1%
- TOXICITY VALUES (XTT), MEAN (ME180 cells; [2]): 0.447 O.D. @ 450/650 nm
- TOXICITY VALUES (XTT), single samples (ME180 cells; [2]): 0.425 O.D. @ 450/650 nm and 0.467 O.D. @ 450/650 nm and 0.450 O.D. @ 450/650 nm
- % CC (XTT, percent of cell control) (ME180 cells; 3.2 μg/ml, no mucin): 91.1%
- TOXICITY VALUES (XTT), MEAN (ME180 cells; 3.2 μg/ml, no mucin): 0.463 O.D. @ 450/650 nm
- TOXICITY VALUES (XTT), single samples (ME180 cells; 3.2 μg/ml, no mucin): 0.477 O.D. @ 450/650 nm and 0.453 O.D. @ 450/650 nm and 0.459 O.D. @ 450/650 nm
- % CC (XTT, percent of cell control) (ME180 cells; [3]): 91.1%
- TOXICITY VALUES (XTT), MEAN (ME180 cells; [3]): 0.463 O.D. @ 450/650 nm
- TOXICITY VALUES (XTT), single samples (ME180 cells; [3]): 0.477 O.D. @ 450/650 nm and 0.453 O.D. @ 450/650 nm and 0.459 O.D. @ 450/650 nm
- % CC (XTT, percent of cell control) (ME180 cells; 10 μg/ml, no mucin): 92.0%
- TOXICITY VALUES (XTT), MEAN (ME180 cells; 10 μg/ml, no mucin): 0.467 O.D. @ 450/650 nm
- TOXICITY VALUES (XTT), single samples (ME180 cells; 10 μg/ml, no mucin): 0.468 O.D. @ 450/650 nm and 0.467 O.D. @ 450/650 nm
- % CC (XTT, percent of cell control) (ME180 cells; [4]): 92.0%
- TOXICITY VALUES (XTT), MEAN (ME180 cells; [4]): 0.467 O.D. @ 450/650 nm
- TOXICITY VALUES (XTT), single samples (ME180 cells; [4]): 0.468 O.D. @ 450/650 nm and 0.467 O.D. @ 450/650 nm
- % CC (XTT, percent of cell control) (ME180 cells; 32 μg/ml, no mucin): 91.7%
- TOXICITY VALUES (XTT), MEAN (ME180 cells; 32 μg/ml, no mucin): 0.466 O.D. @ 450/650 nm
- TOXICITY VALUES (XTT), single samples (ME180 cells; 32 μg/ml, no mucin): 0.457 O.D. @ 450/650 nm and 0.438 O.D. @ 450/650 nm and 0.493 O.D. @ 450/650 nm
- % CC (XTT, percent of cell control) (ME180 cells; [5]): 91.7%
- TOXICITY VALUES (XTT), MEAN (ME180 cells; [5]): 0.466 O.D. @ 450/650 nm
- TOXICITY VALUES (XTT), single samples (ME180 cells; [5]): 0.467 O.D. @ 450/650 nm and 0.438 O.D. @ 450/650 nm and 0.493 O.D. @ 450/650 nm
- % CC (XTT, percent of cell control) (ME180 cells; 100 μg/ml, no mucin): 97.8%
- TOXICITY VALUES (XTT), MEAN (ME180 cells; 100 μg/ml, no mucin): 0.497 O.D. @ 450/650 nm
- TOXICITY VALUES (XTT), single samples (ME180 cells; 100 μg/ml, no mucin): 0.481 O.D. @ 450/650 nm and 0.491 O.D. @ 450/650 nm and 0.519 O.D. @ 450/650 nm
- % CC (XTT, percent of cell control) (ME180 cells; [6]): 97.8%
- TOXICITY VALUES (XTT), MEAN (ME180 cells; [6]): 0.497 O.D. @ 450/650 nm
- TOXICITY VALUES (XTT), single samples (ME180 cells; [6]): 0.481 O.D. @ 450/650 nm and 0.491 O.D. @ 450/650 nm and 0.519 O.D. @ 450/650 nm
- TC50 (concentration at which 50% of cells are eliminated) (ME180 cells; no mucin): TC50 = 100 μg/ml
- TC50 (concentration at which 50% of cells are eliminated) (ME180 cells; with 150 μg/ml pig mucin): TC50 = 100 μg/ml
- % VC (p24, percent of virus control) (SK1 isolate of HIV-1; 0.32 μg/ml, no mucin): 93.4%
- p24 VALUES, MEAN (SK1 isolate of HIV-1; 0.32 μg/ml, no mucin): 51.0 µg/mL
- p24 VALUES, single samples (SK1 isolate of HIV-1; 0.32 μg/ml, no mucin): 52.2 µg/mL and 52.5 µg/mL and 48.2 µg/mL
- % VC (p24, percent of virus control) (SK1 isolate of HIV-1; [1]): 90.6%
- p24 VALUES, MEAN (SK1 isolate of HIV-1; [1]): 56.2 µg/mL
- p24 VALUES, single samples (SK1 isolate of HIV-1; [1]): 56.2 µg/mL and 53.5 µg/mL and 58.9 µg/mL
- % VC (p24, percent of virus control) (SK1 isolate of HIV-1; 1 μg/ml, no mucin): 100.2%
- p24 VALUES, MEAN (SK1 isolate of HIV-1; 1 μg/ml, no mucin): 54.7 µg/mL
- p24 VALUES, single samples (SK1 isolate of HIV-1; 1 μg/ml, no mucin): 53.5 µg/mL and 57.0 µg/mL
- % VC (p24, percent of virus control) (SK1 isolate of HIV-1; [2]): 86.72%
- p24 VALUES, MEAN (SK1 isolate of HIV-1; [2]): 53.1 µg/mL
- p24 VALUES, single samples (SK1 isolate of HIV-1; [2]): 51.0 µg/mL and 57.5 µg/mL and 50.9 µg/mL
- % VC (p24, percent of virus control) (SK1 isolate of HIV-1; 3.2 μg/ml, no mucin): 91.4%
- p24 VALUES, MEAN (SK1 isolate of HIV-1; 3.2 μg/ml, no mucin): 49.9 µg/mL
- p24 VALUES, single samples (SK1 isolate of HIV-1; 3.2 μg/ml, no mucin): 50.3 µg/mL and 47.2 µg/mL and 52.2 µg/mL
- % VC (p24, percent of virus control) (SK1 isolate of HIV-1; [3]): 88.2%
- p24 VALUES, MEAN (SK1 isolate of HIV-1; [3]): 54.7 µg/mL
- p24 VALUES, single samples (SK1 isolate of HIV-1; [3]): 52.1 µg/mL and 54.7 µg/mL and 57.3 µg/mL
- % VC (p24, percent of virus control) (SK1 isolate of HIV-1; 10 μg/ml, no mucin): 84.1%
- p24 VALUES, MEAN (SK1 isolate of HIV-1; 10 μg/ml, no mucin): 45.9 µg/mL
- p24 VALUES, single samples (SK1 isolate of HIV-1; 10 μg/ml, no mucin): 45.3 µg/mL and 45.7 µg/mL and 46.6 µg/mL
- % VC (p24, percent of virus control) (SK1 isolate of HIV-1; [4]): 92.6%
- p24 VALUES, MEAN (SK1 isolate of HIV-1; [4]): 57.5 µg/mL
- p24 VALUES, single samples (SK1 isolate of HIV-1; [4]): 53.2 µg/mL and 58.1 µg/mL and 61.1 µg/mL
- % VC (p24, percent of virus control) (SK1 isolate of HIV-1; 32 μg/ml, no mucin): 96.0%
- p24 VALUES, MEAN (SK1 isolate of HIV-1; 32 μg/ml, no mucin): 52.4 µg/mL
- p24 VALUES, single samples (SK1 isolate of HIV-1; 32 μg/ml, no mucin): 51.9 µg/mL and 53.2 µg/mL and 52.0 µg/mL
- % VC (p24, percent of virus control) (SK1 isolate of HIV-1; [5]): 102.7%
- p24 VALUES, MEAN (SK1 isolate of HIV-1; [5]): 63.7 µg/mL
- p24 VALUES, single samples (SK1 isolate of HIV-1; [5]): 65.5 µg/mL and 60.5 µg/mL and 65.1 µg/mL
- % VC (p24, percent of virus control) (SK1 isolate of HIV-1; 100 μg/ml, no mucin): 94.5%
- p24 VALUES, MEAN (SK1 isolate of HIV-1; 100 μg/ml, no mucin): 51.6 µg/mL
- p24 VALUES, single samples (SK1 isolate of HIV-1; 100 μg/ml, no mucin): 52.6 µg/mL and 52.0 µg/mL and 50.1 µg/mL
- % VC (p24, percent of virus control) (SK1 isolate of HIV-1; [6]): 104.2%
- p24 VALUES, MEAN (SK1 isolate of HIV-1; [6]): 64.6 µg/mL
- p24 VALUES, single samples (SK1 isolate of HIV-1; [6]): 63.7 µg/mL and 59.6 µg/mL and 70.6 µg/mL
- IC50 (inhibition of cell-cell transmission) (SK1 isolate of HIV-1; no mucin): IC50 = 100 μg/ml
- IC50 (inhibition of cell-cell transmission) (SK1 isolate of HIV-1; with 150 μg/ml pig mucin): IC50 = 100 μg/ml
